Measured values taken from US20220175750A1, “SUSTAINED RELEASE FORMULATION FOR LOCAL DELIVERY OF CDK9 INHIBITORS” (The Regents of the University of California, priority 2019, published 2022).

What was measured:
[1] = Microparticle drug loading / loading efficiency; format: physicochemical; conditions: for incorporation of inhibitor (adequacy): PLGA
Description: (§1) FIG. 6: Flavopiridol was encapsulated at 1% w/v ratio in PLGA microparticles (MPs) synthesized using Purasorb® PDLG 5004A (Corbion) in methylene chloride at 20% w/v ratio and vortexed vigorously for 30 seconds after addition of polyvinyl alcohol (10%) at 2:1 ratio. The solution was then added dropwise to 1% PVA and mixed overnight, with 3× washes next day and lyophilized overnight. […] FIG. 6B: Linear standard curve for different concentrations of flavopiridol in solution of dissolved PLGA in DMSO acquired with Nanodrop 2000 Spectrophotometer at 274 nm. […] FIG. 6D: SEM image of flavopiridol MPs using a Phillips XL30 Microscope.
Preparation of poly(lactic-co-glycolic) acid (PLGA) or polycaprolactone (PCL) particles with CDK9 inhibitors was performed using a single emulsion-solvent evaporation technique. Briefly, 500 mg of PLGA or PCL was dissolved in 2.5 mL of 2% v/v dimethylsulfoxide in methylene chloride (for PLGA) or chloroform (for PCL). […] The solutions were vortexed at full speed (30 seconds for PLGA or 45 seconds for PCL) to form microparticles. The microparticle suspensions were transferred to 150 mL of 1% poly(vinyl alcohol), and stirred for 24 hours. The particles were pelleted, washed with water, lyophilized and stored at −20° C. for further use. Size distribution was measured using an AccuSizer model 770 optical particle sizer (Particle Sizing Systems).
For example, SNS-032 has a 30.7% loading efficiency, such that of the 2 g of starting SNS-032, about 0.61 g was encapsulated in the PLGA microparticles. Lower amounts of drug encapsulation result in less inhibitor per microparticle. If the loading efficiency decreases below a certain threshold, the amount of microparticles required to deliver a therapeutic dose of the CDK9 inhibitor can become prohibitive (for cost, efficiency, injection volume, and potentially, an adverse reaction of the treated subject to the administered microparticles).

[2] = In vitro release of CDK9 inhibitor from microparticles in PBS-Tween; format: physicochemical; conditions: PLGA
Description: as §1
Flavopiridol release from the particles was quantified over 42 days in PBS-Tween®, by absorbance at 247 nm.
(B) Release: The release characteristics of the microparticles prepared above were determined using the procedure set forth in Example 2.

[3] = as above; format: physicochemical; conditions: PCL
NFκB target genes = test: Gene expression in primary human chondrocytes treated with IL-1β with or without flavopiridol; format: cell-based
Source text: CDK9 inhibition effectively suppresses the transcription of primary inflammatory response genes.
CDK9 inhibitors exert effects on the inflammatory response pathway.

ACL-rupture in mice = test: Primary response gene mRNA expression after ACL-rupture knee injury, systemic flavopiridol; format: in vivo

| Compound | incorporation of inhibitor (adequacy) [1] | incorporation of inhibitor (adequacy) ([1]; listed as dinaciclib) | % loading efficiency ([1]; PCL microparticles) [%] | % loading efficiency ([1]; PLGA microparticles) [%] | amount encapsulated in the PLGA microparticles ([1]; of the 2 g of starting SNS-032) | % release ([2]; Day 1) [%] | % release ([2]; Day 3) [%] | % release ([2]; Day 5) [%] | % release ([3]; Day 3) [%] | % release ([3]; Day 7) [%] | average magnitude of repression (of maximum induction) of IL-1β-induced genes (NFκB target genes; 300 nM flavopiridol, 10 ng/mL IL-1β, 5 hours) [%] | number of IL-1β-induced genes repressed by flavopiridol co-treatment (NFκB target genes; of 67 genes induced by IL-1β (84 NFκB target genes tested)) | repeated versus single administration (IL-1β, IL-6 gene expression) (ACL-rupture in mice; 0, 1, or 2 administrations) | mRNA expression of pro-inflammatory cytokines IL-1β and IL-6 at the injured site (ACL-rupture in mice; 4-8 hours post-injury, intraperitoneal injection) | window after injury during which flavopiridol is effective at preventing transcription of primary response genes (ACL-rupture in mice; delay before administration) | house-keeping gene 18S rRNA, Collagen Type 2 and aggrecan expression (ACL-rupture in mice; mouse, in vivo) |
| --- | --- | --- | --- | --- | --- | --- | --- | --- | --- | --- | --- | --- | --- | --- | --- | --- |
| CCc1cnn2c(NCc3ccc[n+]([O-])c3)cc(N3CCCC[C@H]3CCO)nc12 [Dinaciclib] | not encapsulated effectively | failed to incorporate an adequate amount | – | – | – | – | – | – | – | – | – | – | – | – | – | – |
| CC(C)(C)c1cnc(CSc2cnc(NC(=O)C3CCNCC3)s2)o1 [SNS-032] | – | – | 0.3 | 30.7 | about 0.61 g | 4.0 | 5.4 | 7.0 | 0 | 0 | – | – | – | – | – | – |
| CN1CC[C@H](c2c(O)cc(O)c3c(=O)cc(-c4ccccc4Cl)oc23)[C@H](O)C1 [flavopiridol, 2-(2-chlorophenyl)-5,7-dihydroxy-8-[(3S,4R)-3-hydroxy-1-methyl-4-piperidinyl]-4-chromenone] | – | – | – | – | – | – | – | – | – | – | > 86 | 59 | more effective than a single administration | effectively and selectively suppressed | at least 3 hours | not affected |
| Voruciclib | – | – | 1.1 | 59.9 | – | 3.4 | 4.8 | 6.5 | 0.36 | 0.43 | – | – | – | – | – | – |
